In US20090186915A1, “Compositions and methods for treatment of glioblastoma, gliosarcoma, NSCLC, and head and neck cancer” (Unibioscreen S. A., priority 2006, published 2009):
Like-named read-outs stand apart in the source and are kept apart here.

Tests used:
BFU-E = assay: HALO hematotoxicity assay, human BFU-E; type: cell-based; settings: 7 days culture, iATP
Experimental: (§1) Investigation of the hematotoxic potential of UNBS5162 was undertaken by HemoGenix (Colorado Springs, Colo.). The effects of UNBS5162 on stem and progenitor cell populations from murine and human bone marrow were assessed using HALO (Hematopoietic/Hematotoxicity Assay through Luminescence Output) technology. Stem and hematopoietic progenitor cell populations were isolated from mouse and human bone marrow samples, plated at a concentration of 1.0×10^4 cells/well and cultured for 5 and 7 days, respectively, in the presence of growth factors and increasing concentrations of UNBS5162 ranging from 0.5 nM to 50 μM. The proliferative or growth potential of cell populations was determined from intracellular ATP (iATP) concentrations and a luciferin/luciferase bioluminescence signal detection system. All samples were assayed in eight replicates. The results are presented as estimated inhibitory concentration (IC) values.

PC-3 = assay: Apoptosis by Annexin V flow cytometry, PC-3; type: cell-based, human
Experimental: We used flow cytometry (according to the protocol found in Mijatovic et al. Neoplasia 2006) to determine the percentages of PC-3 and DU-145 positive cells for both Annexin V and propidium iodide and we observed that a maximum of 10% only of PC-3 or DU-145 cells underwent apoptotic processes following a treatment with 10 μM of the compound produced according to example 2 or example 7.
The determination of the percentage of cells undergoing apoptosis was performed using an Annexin V-FITC Apoptosis Detection Kit (Sigma) following the manufacturer's instructions. Each sample was evaluated in triplicate.

DU-145 [1] = assay: Autophagy: acidic vesicular organelles, acridine orange flow cytometry, DU-145; type: cell-based, human; settings: red fluorescence, up to 10 μM
Experimental: The cytoplasm and nucleus fluoresce green in acridine orange-stained cells, and the acidic compartments fluoresce red. The intensity of the red fluorescence is proportional to the degree of acidity and the volume of acidic vesicular organelles, including autophagic vacuoles. To quantify the development of acidic vesicular organelles, the cells were stained with acridine orange for 15 minutes and removed from the plate with trypsinization. Cells were then analyzed by flow cytometry. Each sample was evaluated in triplicate.

Hs683 = assay: MTT colorimetric assay, Hs683 cells; type: cell-based; settings: Homo sapiens, Hs 683, 72 h, 3 days of culturing, mean of six determinations, read-out: IC50 (μM) In Vitro Growth Inhibition
Experimental: (§2) The overall growth of human cancer cell lines was determined by means of the calorimetric MTT (3-[4,5-dimethylthiazol-2-yl]-diphenyl tetrazolium bromide; Sigma) assay, as detailed previously.

GM-CFC = assay: HALO hematotoxicity assay, mouse GM-CFC; type: cell-based; settings: 5 days culture, iATP
Experimental: as §1

DU-145 [2] = assay: Lysosomal membrane permeabilization (LMP), DU-145; type: cell-based, human; settings: 72 hours, 10 μM
Text: It is well known that lysosomes control cell death at several levels. In response to endogenous or exogenous stress (including chemotherapy), lysosomal membrane permeabilization (LMP) can occur, leading to the release of catabolic hydrolases that can mediate caspase-dependent apoptosis, caspase-independent apoptosis-like cell death or even necrosis following high levels of LMP.

[3] = tested on: nine human cancer cell lines; assay: MTT colorimetric assay, mean of nine cell lines; type: cell-based; settings: mean over nine human cancer cell lines, read-out: mean antiproliferative activity IC50
Experimental: as §2
UNBS3157 and UNBS5162 display weak antiproliferative activity in vitro.

CFC-GEMM = assay: HALO hematotoxicity assay, mouse CFC-GEMM; type: cell-based; settings: 5 days culture, iATP
Experimental: as §1

[4] = tested on: orthotopic Hs683 xenograft; assay: Orthotopic Hs683 xenograft nude mice model, survival; type: in vivo; settings: Temodal p.o. 40 mg/kg three times a week for three weeks followed by UNBS5162 i.v. 10 mg/kg once a week for three weeks
Experimental: In order to evaluate UNBS5162-mediated in vivo anti-tumor effect in glioma models, an orthotopis Hs683 model was used that was previously evidenced as expressing pro-angiogenic chemokines at the most high level. […] In line with this, an experiment combining Temodal to UNBS5162 was performed.
Thus, combining pro-autophagic therapy with an inhibitor of pro-angiogenic chemokines might represent a new manner to treat glioblastoma, at least some types that express high levels of pro-angiogenic chemokines.

HCT-15 = assay: MTT colorimetric assay, HCT-15 cells; type: cell-based; settings: Homo sapiens, 72 h, 3 days of culturing, mean of six determinations, read-out: IC50 (μM) In Vitro Growth Inhibition
Experimental: as §2

DU-145 [5] = assay: MTT colorimetric assay, DU-145 cells; type: cell-based; settings: Homo sapiens, 72 h, 3 days of culturing, mean of six determinations, read-out: IC50 (μM) In Vitro Growth Inhibition
Experimental: as §2

[6] = tested on: platelets, red and white blood cells; assay: Compound-induced hematotoxicity and tolerance in mice; type: in vivo; settings: 20 mg/kg intra-venous, three times a week for five weeks
Experimental: We have determined the compound-induced potential hematotoxicity of the compound produced according to example 2 or example 7 on platelets, red and white blood cells in comparison of the effect of amonafide on platelets, red and white blood cells. The effect of amonafide was evaluated at 10 mg/kg and 20 mg/kg, by the intra-peritoneal administration to mice. The administration schedule was five times a week for three consecutive weeks. The effect of the compound produced according to example 2 or example 7 was evaluated at 20 mg/kg, by the intra-venous administration to mice. The administration schedule was three times a week (on Mondays, Wednesdays and Fridays) for five consecutive weeks. The animals were sacrificed 3 days after the last injection. There were 10 mice per group. FIG. 1 illustrates results of this assay for compound-induced hematotoxicity on platelets.

[7] = tested on: human PC-3 orthotopic xenografts
Experimental: Orthotopic xenografts were obtained by injecting 2.5×10^6 human PC-3 or DU-145 cells into the prostate of 6-week-old male nu/nu mice (n=9 animals per treatment group). All grafts were performed under anesthesia [saline/Rompun (Bayer, Leverkusen, Germany)/Imalgene (Merial, Lyons, France); 5:1:1 by volume]. The end point in these orthotopic experiments was the survival period of the tumor-bearing mice after the administration of UNBS3157, UNBS5162, or reference anticancer agents (taxol, mitoxantrone, and amonafide). However, for ethical reasons, animals were killed when 20% of body weight had been lost compared to that determined at the time of tumor grafting. All animals were weighed three times a week. […] In the case of UNBS5162 experiments in the PC-3 model, after the sacrifice of animals, tumors were removed from both drug-treated [10 mg/kg, intravenous (i.v.)] and vehicle-treated mice, fixed in buffered formalin, embedded in paraffin, and 5-μm-thick sections taken. These histologic slides were then stained with hematoxylin and eosin for blood vessel counts.

CN(C)CCN1C(=O)c2cccc3cc(NC(N)=O)cc(c23)C1=O [UNBS5162, N-{2-[2-(dimethylamino)ethyl]-1,3-dioxo-2,3-dihydro-1H-benzo[de]isoquinolin-5-yl}urea]
IC50 (BFU-E; 168 h): 3.6 µM | IC90 (BFU-E; 168 h): 17.6 µM | IC75 (BFU-E): 8.16 µM | cells undergoing apoptotic processes (Annexin V and propidium iodide positive) (PC-3; 10 μM): ≤ 10% | induction of real (early) apoptosis (PC-3; flow cytometry): does not induce real (early) apoptosis | pro-autophagic effects (acidic vesicular organelles) (DU-145 [1]): had a proautophagic effect | pro-autophagic effects (acidic vesicular organelles) (DU-145 [1]; listed as example 2): pro-autophagic effects | IC50 (Hs683): 8.5 µM | IC50 (GM-CFC; 120 h): 7.04 µM | IC90 (GM-CFC; 120 h): 12 µM | IC75 (GM-CFC): 9.09 µM | lysosomal membrane permeabilization (LMP) (DU-145 [2]): a marked drug-induced LMP process appeared | IC50 [3]: 17.9 µM | IC50 (CFC-GEMM; 120 h): 6.22 µM | IC90 (CFC-GEMM; 120 h): 8.96 µM | IC75 (CFC-GEMM): 7.48 µM | survival period of tumor bearing mice [4]: significantly prolonged the survival period of tumor bearing mice | IC50 (HCT-15): 28.8 µM | IC50 (DU-145 [5]): 16 µM | tolerance of chronic administrations [6]: tolerated 15 chronic administrations | angiogenesis in tumors (histopathology, blood vessel counts) ([7]; PC-3 orthotopic model, 10 mg/kg i.v.): anti-angiogenic properties in vivo | therapeutic benefit (survival) ([7]; PC-3 orthotopic model, 10 mg/kg i.v. three times a week for 6 consecutive weeks): therapeutic benefits that were similar to repeat i.v. administration (once a week for 6 consecutive weeks) of 20-mg/kg taxol | therapeutic benefit (survival) in combination ([7]; PC-3 orthotopic model, UNBS5162 10 mg/kg i.v. at the same time as taxol 20 mg/kg i.v.): significantly (P<0.01) increased the therapeutic benefit contributed by taxol alone | therapeutic benefit (survival) in combination ([7]; PC-3 orthotopic model, UNBS5162 before or after taxol): did not modify the therapeutic benefit contributed by taxol alone | toxicity of combined treatment (mouse weight, behavior) ([7]; mouse, in vivo): did not contribute higher toxicity
